Assay results reported in US20070254019A1, “METHOD FOR TREATING BRAIN CANCER” (priority 2006, published 2007).

Key:
[1] = Plasma, tumor and tissue pharmacokinetic disposition of CKD-602 after single IV administration in mice bearing A375 tumors; assay type: in vivo
Excerpt: The objectives of the study were to evaluate the plasma, tumor, and tissue disposition of CKD-602 after a single intravenous (IV) administration of liposomes entrapped with CKD-602 and having an outer surface coating of methoxypolyethylene glycol (S-CKD602) and non-liposomal CKD-602 in female SCID mice bearing A375 human melanoma xenografts. New sample processing methods were developed to evaluate the encapsulated and released CKD-602 in plasma after administration of S-CKD602. Microdialysis methodology was used to evaluate the release of CKD-602 from S-CKD602 in tumor ECF.
Mice. All mice were handled in accordance with the Guide to the Care and Use of Laboratory Animals (National Research Council, 1996), and studies were approved by the Institutional Animal Care and Use Committee at the University of Pittsburgh Medical Center. Mice (female C.B-17 SCID,4-6 weeks of age, and specific pathogen free), were obtained from Taconic (Hudson, N.Y.), and were allowed to acclimate to the animal facilities at the University of Pittsburgh for 1 week prior to initiation of study. Mice were housed in microisolator cages and allowed ISDPRO autoclavable rodent chow (PMI Nutrition International, Inc., Brentwood, Mo.) and mice received water ad libitum. Body weights and tumor size were measured twice weekly and clinical observations were made twice daily.
Tumor Lines. A375 human melanoma xenografts were obtained from the DCTD Tumor Repository (Fredrick, Md.) and were mouse antigen production test-negative. A375 tumors were expanded in culture and injected (1×10^7 cells/mouse) subcutaneously into passage mice. The A375 tumors were harvested when they were 1 to 2 g and were implanted as approximately 25-mg fragments subcutaneously on the fight flank of SCID mice by aseptic techniques. […] Pharmacokinetic and microdialysis studies were performed when the tumors were approximately 1000 to 1500 mm^3 (1 to 1.5 g) in size.
Formulation and Administration. S-CKD602 is a pegylated liposomal formulation of CKD-602. The clinical formulation of S-CKD602 was used in this study (Alza Corp., Mountain View Calif.) (Zamboni et al., Final results of a phase I and pharmacokinetic study of STEALTH liposomal CKD-602 (S-CKD602) in subjects with advanced solid tumors. Proceedings of ASCO […];82s:2006). Approximately 80% of the lipid in S-CKD602 liposome is fully hydrogenated soy phosphatidylcholine and cholesterol. In addition, methoxypolyethylene glycol is covalently bound to phosphatidylethanolamine and a component of the lipid bilayer. The mean particle size of the S-CKD602 was approximately 110 nm. CKD-602 is encapsulated in the core of the liposome with an encapsulation efficiency of greater than 90%. The drug-to-lipid ratio of S-CKD602 is approximately […] CKD-602 per milligram of lipid. In the S-CKD602 formulation, the CKD-602 concentration was 0.1 mg/mL. The doses of S-CKD602 refer to actual doses of CKD-602. S-CKD602 was administered at 1 mg/kg IV push via a tail vein over approximately 1 min. This dose is one-half the maximum tolerated dose (MTD) in mice. The dose of S-CKD602 administered was based on the maximum volume of drug allowed to be administered IV by the study's IACUC.
Non-liposomal CKD602 was administered at 30 mg/kg IV push via the tail vein. This dose is approximately the MTD for a single dose of non-liposomal CKD-602 in mice. Non-liposomal CKD-602 was prepared at 3 mg/mL in 270 mM mannitol and 0.4 mM tartaric acid in a 5% dextrose solution at pH 3.6. The vehicle control for S-CKD602 and non-liposomal CKD-602 was 0.9% NaCI and 270 mM mannitol and 0.4 mM tartaric acid in a 5% dextrose solution at pH 3.6, respectively.
Pharmacokinetic Studies. Due to limited sample volume, the pharmacokinetic and microdialysis studies were performed in separate groups of mice. Pharmacokinetic studies of S-CKD602 were performed after administration of vehicle, and at 5 min, 0.25, 0.5, 1, 2, 4, 7, 16, 24, 48, and 72 h after administration. […]

[2] = mice; IV push
[3] = Microdialysis study of tumor ECF disposition of CKD-602
Description: At all other microdialysis sample intervals, probe recovery was estimated using camptothecin as a tracer agent.
The HPLC system consisted of a Finnigan Specta Systems AS3000 autosampler and P4000 quarternary pump (Thermo Finnigan, Waltham, Mass.) with a Phenomenex Synergi Hydro-RP 80A (4 um, 100×2 mm) analytical column (Phenomenex, Torrance, Calif.). The isocratic mobile phase consisted of 0.1% formic acid in methanol:water (35:85, v/v) and was pumped at 0.2 mL/min. Injection volume was 10 pL and the run time was 10 min. […] The insert probe temperature was set at 400° C. with 3 kV ion spray voltage and 20 V orifice voltage. Nitrogen gas flow was fixed at 75 p.s.i. at the tank head unit. The system was operated with ThermoFinnigan Xcaliber software.

[4] = brain, single IV dose (S-CKD602 1 mg/kg; non-liposomal 30 mg/kg)
[5] = fat, single IV dose (S-CKD602 1 mg/kg; non-liposomal 30 mg/kg)
[6] = kidney, single IV dose (S-CKD602 1 mg/kg; non-liposomal 30 mg/kg)
[7] = liver, single IV dose (S-CKD602 1 mg/kg; non-liposomal 30 mg/kg)
[8] = muscle, single IV dose (S-CKD602 1 mg/kg; non-liposomal 30 mg/kg)
[9] = plasma, single IV dose (S-CKD602 1 mg/kg; non-liposomal 30 mg/kg)
[10] = spleen, single IV dose (S-CKD602 1 mg/kg; non-liposomal 30 mg/kg)
[11] = tumor, single IV dose (S-CKD602 1 mg/kg; non-liposomal 30 mg/kg)
[12] = tumor ECF by microdialysis, S-CKD602 (1 mg/kg), Non-Liposomal CKD-602 (30 mg/kg) IV

CC[C@@]1(O)C(=O)OCc2c1cc1n(c2=O)Cc2c-1nc1ccccc1c2CCNC(C)C [Non-Liposomal CKD-602]
AUC, sum total CKD-602, Brain [1, 4]: 849 ng·h/mL | Cmax, sum total CKD-602, Brain [1, 4]: 572 ng/mL | Tlast, sum total CKD-602, Brain [1, 4]: 7 h | Tmax, sum total CKD-602, Brain [1, 4]: 4.8 min | Cmax, sum total CKD-602, Fat [1, 5]: 7,321 ng/mL | Tlast, sum total CKD-602, Fat [1, 5]: 24 h | Tmax, sum total CKD-602, Fat [1, 5]: 15 min | AUC, sum total CKD-602, Kidney [1, 6]: 56,267 ng/mL · h | Cmax, sum total CKD-602, Kidney [1, 6]: 68,497 ng/mL | Tlast, sum total CKD-602, Kidney [1, 6]: 24 h | Tmax, sum total CKD-602, Kidney [1, 6]: 4.8 min | AUC, sum total CKD-602, Liver [1, 7]: 68,620 ng/mL · h | Cmax, sum total CKD-602, Liver [1, 7]: 69,000 ng/mL | Tlast, sum total CKD-602, Liver [1, 7]: 16 h | Tmax, sum total CKD-602, Liver [1, 7]: 240 min | Cmax, sum total CKD-602, Muscle [1, 8]: 12,383 ng/mL | Tlast, sum total CKD-602, Muscle [1, 8]: 24 h | Tmax, sum total CKD-602, Muscle [1, 8]: 4.8 min | overall distribution in muscle compared with fat ([1]; non-liposomal CKD-602 30 mg/kg IV, muscle vs fat): 3 fold | AUC, sum total CKD-602, Fat ([1]; peritoneal cavity fat, single IV dose (S-CKD602 1 mg/kg; non-liposomal 30 mg/kg)): 8,280 ng/mL · h | Plasma Sum Total AUC(0-inf) ([1]; plasma, S-CKD602 (1 mg/kg), Non-Liposomal CKD-602 (30 mg/kg) IV): 9,117 ng/mL · h | Tlast, sum total CKD-602, Plasma ([1]; plasma, last detectable time, single IV dose (S-CKD602 1 mg/kg; non-liposomal 30 mg/kg)): 16 h | Cmax, sum total CKD-602, Plasma [1, 9]: 6,959 ng/mL | Tmax, sum total CKD-602, Plasma [1, 9]: 4.8 min | Tmax, sum total CKD-602, Plasma ([1]; plasma, single IV dose (S-CKD602 1 mg/kg; non-liposomal 30 mg/kg), listed as non-liposomal CKD-602): 4.98 min | AUC, sum total CKD-602, Plasma ([1]; plasma, single IV dose (S-CKD602 1 mg/kg; non-liposomal CKD-602 30 mg/kg)): 9,117 ng/mL · h | AUC, sum total CKD-602, Muscle ([1]; skeletal muscle, single IV dose (S-CKD602 1 mg/kg; non-liposomal 30 mg/kg)): 24,485 ng/mL · h | AUC, sum total CKD-602, Spleen [1, 10]: 23,124 ng/mL · h | Cmax, sum total CKD-602, Spleen [1, 10]: 14,724 ng/mL | Tlast, sum total CKD-602, Spleen [1, 10]: 24 h | Tmax, sum total CKD-602, Spleen [1, 10]: 15 min | tissues with the highest exposures of CKD-602 ([1]; sum total CKD-602 in tissues): liver and kidney | Tumor Sum Total(0-inf) ([1]; tumor homogenate AUC, S-CKD602 (1 mg/kg), Non-Liposomal CKD-602 (30 mg/kg) IV): 11,661 ng/mL · h | Cmax, sum total CKD-602, Tumor [1, 11]: 3,688 ng/mL | Tlast, sum total CKD-602, Tumor [1, 11]: 24 h | Tmax, sum total CKD-602, Tumor [1, 11]: 30 min | MTD for a single dose [2]: ~30 mg/kg | CKD-602 in tumor ECF detectable until ([3]; detectable from 10 min, microdialysis): 19.25 h | variation of CKD-602 concentration in tumor ECF at individual time points ([3]; during the collection intervals): 4- to 5 fold | Time >1 ng/mL In Tumor ECF [3, 12]: ˜20 h | Tumor ECF AUC(0-inf) [3, 12]: 639 ng·h/mL
